The assay deals with T1, signal transducer and activator of transcription 3 (STAT3) (Homo sapiens, UniProt P40763).
T1 construct: Wild-type STAT3 proteins
As to the kind of experiment: SPR (BIAcore T200, STAT3 immobilized on CM5 chip); supported by pull-down, proteome microarray and CETSA. The assay is classed as binding. For orientation: In SPR one partner is held on a chip, and binding of the other changes the refractive index at the surface.

T1 sequence (P40763 2-770): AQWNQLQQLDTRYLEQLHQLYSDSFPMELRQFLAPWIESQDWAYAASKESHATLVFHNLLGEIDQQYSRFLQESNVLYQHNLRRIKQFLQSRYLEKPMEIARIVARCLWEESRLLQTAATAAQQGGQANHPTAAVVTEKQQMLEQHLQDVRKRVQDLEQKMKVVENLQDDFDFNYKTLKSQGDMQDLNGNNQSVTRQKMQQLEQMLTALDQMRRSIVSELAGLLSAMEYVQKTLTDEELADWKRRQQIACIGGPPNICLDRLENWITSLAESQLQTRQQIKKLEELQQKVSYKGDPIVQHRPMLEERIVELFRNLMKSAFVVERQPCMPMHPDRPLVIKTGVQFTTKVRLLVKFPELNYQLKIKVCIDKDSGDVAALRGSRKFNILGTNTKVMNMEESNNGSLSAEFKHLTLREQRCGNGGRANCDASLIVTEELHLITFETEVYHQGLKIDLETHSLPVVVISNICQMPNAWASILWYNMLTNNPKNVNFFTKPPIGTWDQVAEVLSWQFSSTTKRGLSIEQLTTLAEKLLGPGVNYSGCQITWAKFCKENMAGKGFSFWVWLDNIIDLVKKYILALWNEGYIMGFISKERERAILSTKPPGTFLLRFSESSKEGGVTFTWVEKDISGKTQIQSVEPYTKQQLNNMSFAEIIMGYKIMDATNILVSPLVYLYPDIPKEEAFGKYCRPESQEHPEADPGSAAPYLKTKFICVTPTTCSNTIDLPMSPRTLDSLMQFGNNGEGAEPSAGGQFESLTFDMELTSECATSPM

In the case of `O=c1c(O[C@@H]2O[C@H](CO)[C@@H](O)[C@H](O)[C@H]2O)c(-c2ccc(O)c(O)c2)oc2cc(O)cc(O)c12` [Isoquercitrin], the dissociation constant Kd – broadly, a measure of binding affinity in units of concentration – worked out at 2.86 µM.

For the origin of these results see PMC12224983, “Isoquercitrin Alleviates Diabetic Nephropathy by Inhibiting STAT3 Phosphorylation and Dimerization” (Advanced Science, 2025).
